This passage reports IC50, Ki and inhibition results from patent US20050009840A1 (SUGEN, INC., priority 2003, published 2005).

In experiment [1] the target is T1, Met kinase domain (GST fusion protein) (Homo sapiens, UniProt P08581).
T1 construct: Purified GST fusion protein containing the Met kinase domain
The experiment can be described thus: Met transphosphorylation assay (ELISA, poly(glu-tyr) substrate).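 Also: Cell-free ELISA with plate-bound poly(Glu:Tyr 4:1) phosphorylated by GST-fused Met kinase domain plus ATP and Mn2+, phosphotyrosine detected by anti-phosphotyrosine antibody with HRP and ABTS read-out.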 The experiment is classed as biochemical. The note with it: read-out: Met IC50.

The next experiment deals with T2, HGFR (Homo sapiens, UniProt P08581).
T2 construct: purchased Upstate 14-526
T2 sequence (P08581 974-1390 limits assumed): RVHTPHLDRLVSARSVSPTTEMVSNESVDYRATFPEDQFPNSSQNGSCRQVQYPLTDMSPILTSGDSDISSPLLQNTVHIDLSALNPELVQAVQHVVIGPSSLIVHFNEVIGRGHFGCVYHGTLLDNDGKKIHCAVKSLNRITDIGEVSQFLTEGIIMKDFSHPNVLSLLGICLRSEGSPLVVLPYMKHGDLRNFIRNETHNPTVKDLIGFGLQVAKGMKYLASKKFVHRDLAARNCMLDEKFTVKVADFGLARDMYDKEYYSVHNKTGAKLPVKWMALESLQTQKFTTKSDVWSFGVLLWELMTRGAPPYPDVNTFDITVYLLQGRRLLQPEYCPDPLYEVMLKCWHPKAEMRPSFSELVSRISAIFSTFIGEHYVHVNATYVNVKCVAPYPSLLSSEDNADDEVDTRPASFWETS
The experiment can be described thus: HGFR continuous-coupled spectrophotometric assay. In kind it is biochemical. As to conditions: for inhibition at 1 µM: Table 8, library procedure 43; for inhibition at 1 µM / inhibition at 1 pM: read-out: % Inhibition (percent c-MET inhibition); for inhibition at 0.05 µM: at 50 nM, Table 5, library procedure 40, read-out: % inhibition (percent c-MET inhibition).

Setting [2] is: plain numbers in column Met IC50 (μM) of Table 2.
[3] abbreviates: Table 3, column 'Ki (μM) or I (%)': cells without % sign, read-out: Ki.

Read-outs that look alike come from different tables or passages of the source.

T1 sequence (P08581 1078-1345 limits assumed): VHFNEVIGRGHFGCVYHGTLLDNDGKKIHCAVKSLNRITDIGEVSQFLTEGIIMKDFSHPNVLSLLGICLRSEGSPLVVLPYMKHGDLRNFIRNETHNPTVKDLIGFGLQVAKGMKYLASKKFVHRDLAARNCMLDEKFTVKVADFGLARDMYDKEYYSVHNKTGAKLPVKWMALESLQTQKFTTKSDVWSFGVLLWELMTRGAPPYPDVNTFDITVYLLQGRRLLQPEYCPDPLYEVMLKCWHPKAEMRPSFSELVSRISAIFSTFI

For orientation: IC50 means the concentration that gives 50% inhibition. Take `CC(C)CCOc1cnc(N)c(OC(C)c2c(F)ccc(F)c2Cl)c1` (stereo not drawn) [Example I-531, 3-[1-(2-Chloro-3,6-difluoro-phenyl)-ethoxy]-5-(3-methyl-butoxy)-pyridin-2-ylamine]: the IC50 in experiment [1] (setting [2]) worked out at 2.4 µM. As to `Nc1ncc(-c2ccc(N3CCCS3(=O)=O)cc2)cc1OCc1c(Cl)cccc1Cl` [Example I-241], the IC50 in experiment [1] (Table 2) is 0.067 µM. For the compound `Nc1ncc(-c2cccc3[nH]ccc23)cc1OCc1c(Cl)cccc1-c1cccc2[nH]ccc12` [Example I-5, 3-[2-Chloro-6-(1H-indol-4-yl)-benzyloxy]-5-(1H-indol-4-yl)-pyridin-2-ylamine], the IC50 in experiment [1] was found to be 4.71 µM. With `CC(=O)N[C@@H]1CCN(Cc2c[nH]c3ccc(-c4cnc(N)c(OCc5c(Cl)cccc5Cl)c4)cc23)C1` [Example I-67, N-(1-{5-[6-Amino-5-(2,6-dichloro-benzyloxy)-pyridin-3-yl]-1H-indol-3-ylmethyl}-(3R)-pyrrolidin-3-yl)-acetamide], in experiment [1], the IC50 stood at 1.79 µM.

Take `CN(C)[C@H]1CCN(C(=O)c2ccc(-c3cnc(N)c(OCc4c(F)cccc4Cl)c3)cc2)C1` [Example I-144, {4-[6-Amino-5-(2-chloro-6-fluoro-benzyloxy)-pyridin-3-yl]-phenyl}-[(3S)-3-dimethylamino-pyrrolidin-1-yl]-methanone]: the IC50 in experiment [1] was determined as 1.7 µM. Still for that read-out and setting: the same measure for `Nc1ncc(-c2ccc(C(=O)N3CCC[C@@H]3CN3CCCC3)cc2)cc1OCc1ccc(F)cc1C(F)(F)F` [Example I-111, {4-[6-amino-5-(4-fluoro-2-trifluoromethyl-benzyloxy)-pyridin-3-yl]-phenyl)[(2R)-2-pyrrolidin-1-ylmethyl-pyrrolidin-1-yl]-methanone]: 1.51 µM. For the compound `CC(Oc1cc(-c2ccc(C(=O)N3CC[C@@H](N)C3)cc2)cnc1N)c1c(F)ccc(F)c1Cl` (stereo partly drawn) [Example I-334, (4-{6-Amino-5-[1-(2-chloro-3,6-difluoro-phenyl)-ethoxy]-pyridin-3-yl}-phenyl)-((R)-3-amino-pyrrolidin-1-yl)-methanone], in experiment [1] (Table 2), the half-inhibitory concentration (IC50) came to 0.089 µM. In the case of `CC(Oc1cc(-c2ccnc(C(=O)N3CCN(C)CC3)c2)cnc1N)c1c(F)ccc(F)c1Cl` (stereo not drawn) [Example I-522], the IC50 in experiment [1] (setting [2]) turned out to be 0.0626 µM. For the compound `CS(=O)(=O)Nc1ccc(-c2cnc(N)c(OCc3ccccc3C#N)c2)cc1` [Example I-135, N-{4-[6-Amino-5-(2-cyano-benzyloxy)-pyridin-3-yl]-phenyl}-methanesulfonamide], in experiment [1], the IC50 turned out to be 4.18 µM. As to `Nc1ncc(-c2ccccc2)cc1OCc1c(F)ccc(F)c1F` [Example I-99, 5-Phenyl-3-(2,3,6-trifluoro-benzyloxy)-pyridin-2-ylamine], in experiment [1], the IC50 is 3.9 µM. On to `Nc1ncc(-c2ccc(NS(=O)(=O)CCN3CCCCC3)cc2)nc1OCc1c(F)ccc(F)c1Cl` [II-10, 2-Piperidin-1-yl-ethanesulfonic acid {4-[5-amino-6-(2-chloro-3,6-difluoro-benzyloxy)-pyrazin-2-yl]-phenyl}-amide], for which the IC50 in experiment [1] was determined as 1.2 µM. For `Nc1ncc(-c2cccc(NS(=O)(=O)CCN3CC[C@@H](O)C3)c2)cc1OCc1c(F)ccc(F)c1Cl` [Example I-264, 2-[(3R)-3-Hydroxy-pyrrolidin-1-yl]-ethanesulfonic acid {3-[6-amino-5-(2-chloro-3,6-difluoro-benzyloxy)-pyridin-3-yl]-phenyl}-amide], in experiment [1] (Table 2), the IC50 came out at 1.1 µM. As to `CC(Oc1cc(-c2cncc(C(=O)N3CCN(C)CC3)c2)cnc1N)c1c(F)ccc(F)c1Cl` (stereo not drawn) [Example I-520, {6′-Amino-5′-[1-(2-chloro-3,6-difluoro-phenyl)-ethoxy]-[3,3′]bipyridinyl-5-yl}-(4-methyl-piperazin-1-yl)-methanone], the IC50 in experiment [1] (setting [2]) is 0.134 µM. For `CC(Oc1cc(-c2ccc(C(=O)N3CCC(N4CCCC4)CC3)cc2)cnc1N)c1c(Cl)cccc1Cl` (stereo not drawn) [Example I-410, (4-{6-Amino-5-[1-(2,6-dichloro-phenyl)-ethoxy]-pyridin-3-yl}-phenyl)-(4-pyrrolidin-1-yl-piperidin-1-yl)-methanone], the IC50 in experiment [1] (setting [2]) came out at 0.055 µM. Take `CC(Oc1cc(-c2ccc(NC(=O)NC3CCN(C)CC3)cc2)cnc1N)c1c(Cl)ccc(F)c1Cl` (stereo not drawn) [Example I-377, 1-(4-{6-Amino-5-[1-(2,6-dichloro-3-fluoro-phenyl)-ethoxy]-pyridin-3-yl}-phenyl)-3-(1-methyl-pipendin-4-yl)-urea]: in experiment [1] (setting [2]), the concentration for half-maximal inhibition (IC50) was 0.04 µM. In the case of `Nc1ncc(-c2ccccc2F)cc1OCc1c(Cl)cccc1Cl` [Example I-10, 3-(2 6-Dichloro-benzyloxy)-5-(2-fluoro-phenyl)-pyridin-2-ylamine], the IC50 in experiment [1] came to 6.09 µM.

A word on the Ki: it is a measure of affinity in units of concentration, obtained from inhibition or displacement. Consider `CC(Oc1cc(-c2ccc(C(=O)N3CCCNCC3)cc2)cnc1N)c1c(Cl)ccc(F)c1Cl` (stereo not drawn) [Example I-604, (4-{6-Amino-5-[1-(2,6-dichloro-3-fluoro-phenyl)-ethoxy]-pyridin-3-yl}-phenyl)-[1,4]diazepan-1-yl-methanone], for which, at HGFR (setting [3]), the Ki is 0.031 µM. Usually inhibition stands for the relative decrease from the control value, in per cent. For the compound `CC1CN(C(=O)c2ccc(-c3cnc(N)c(OCc4ccc(OC(F)(F)F)cc4)c3)cc2)CC(C)N1` (stereo not drawn), on HGFR, the inhibition at 1 µM was 21%. For the compound `CC(Oc1cc(-c2ccc3[nH]ccc3c2)cnc1N)c1c(Cl)ccc(F)c1Cl` (stereo not drawn) [Example I-647, 3-[1-(2,6-Dichloro-3-fluoro-phenyl)-ethoxy]-5-(1H-indol-5-yl)-pyridin-2-ylamine], on HGFR (setting [3]), the Ki was 0.166 µM. As for `CC(Oc1cc(-c2ccc(C(=O)N3CCCN(C)CC3)cc2)cnc1N)c1c(Cl)ccc(F)c1Cl` (stereo not drawn) [Example I-603, (4-{6-Amino-5-[1-(2,6-dichloro-3-fluoro-phenyl)-ethoxy]-pyridin-3-yl}-phenyl)-(4-methyl-[1,4]-diazepan-1-yl)-methanone], the inhibitory constant (Ki) at HGFR (setting [3]) came to 0.0095 µM. Regarding `CCN(CC)CCN(C)C(=O)c1ccc(-c2cnc(N)c(OC(C)c3c(Cl)ccc(F)c3Cl)c2)cc1` [Example L-43], the inhibition at 0.05 µM on HGFR stood at 85%. Consider `CCC(CC)CN1CCC2(CC1)CC(NC(=O)c1cnc(N)c(OCc3c(Cl)cccc3Cl)c1)CO2` [Example L-330], for which, at HGFR (Table 6, library procedure 41), the inhibition at 1 pM stood at 74%.

With `Cc1cc(CCC2CC3(CCN(C(=O)c4cnc(N)c(OCc5c(Cl)cccc5Cl)c4)CC3)CO2)no1` [Example L-340], the inhibition at 1 pM on HGFR (Table 6, library procedure 41) was determined as 19%. Regarding `CCOC(=O)CCNC(=O)c1cccc(COc2cc(-c3ccc(C(=O)N4CCC(N5CCCC5)CC4)cc3)cnc2N)c1`, at HGFR (Table 7, library procedure 42), the inhibition at 1 pM came out at 14%.

In the case of `CC1CN(C(=O)c2ccc(-c3cnc(N)c(OCc4cc(Cl)cc(Cl)c4)c3)cc2)CC(C)N1` (stereo not drawn), at HGFR, the inhibition at 1 µM amounted to 26%. Take `N#Cc1ccc(COc2cc(-c3ccc(C(=O)N4CCC(N5CCCC5)CC4)cc3)cnc2N)cc1`: the inhibition at 1 pM at HGFR (Table 7, library procedure 42) is 8%.

Take `CC1CN(C(=O)c2ccc(-c3cnc(N)c(OCc4c(F)ccc(F)c4F)c3)cc2)CC(C)N1` (stereo not drawn): the inhibition at 1 µM on HGFR amounted to 41%.

Consider `CCOCCCNC(=O)c1ccc(-c2cnc(N)c(OC(C)c3c(Cl)ccc(F)c3Cl)c2)cc1` [Example L-108], for which the inhibition at 0.05 µM on HGFR amounted to 70%. `CC(Oc1cc(C#CC(C)(C)NC(=O)N2CCC[C@@H]2CN2CCCC2)cnc1N)c1c(Cl)ccc(F)c1Cl` (stereo partly drawn) [Example I-434, (R)-2-Pyrrolidin-1-ylmethyl-pyrrolidine-1-carboxylic acid (3-{6-amino-5-[1-(2,6-dichloro-3-fluoro-phenyl)-ethoxy]-pyridin-3-yl}-1,1-dimethyl-prop-2-ynyl)-amide]: the Ki at HGFR (cells prefixed Ki, read-out: Met Ki) came out at 1.22 µM. For `CC(Oc1cc(-c2ccc(=O)n(CCN3CCCC3)c2)cnc1N)c1c(Cl)ccc(F)c1Cl` (stereo not drawn) [Example I-637, 6′-Amino-5′-[1-(2,6-dichloro-3-fluoro-phenyl)-ethoxy]-1-(2-pyrrolidin-1-yl-ethyl)-1H-[3,3′]-bipyridinyl-6-one], at HGFR (setting [3]), the Ki was 0.692 µM. As for `Nc1ncc(C(=O)NCCc2ccccc2F)cc1OCc1c(Cl)cccc1Cl` [Example L-199], on HGFR (Table 6, library procedure 41), the inhibition at 1 pM is 33%. On to `CC(Oc1cc(-c2ccc(C(=O)N3C[C@@H](O)[C@@H](O)C3)cc2)cnc1N)c1c(Cl)ccc(F)c1Cl` (stereo partly drawn) [Example I-607, (4-{6-Amino-5-[1-(2,6-dichloro-3-fluoro-phenyl)-ethoxy]-pyridin-3-yl}-phenyl)-((3R,4S)-3,4-dihydroxy-pyrrolidin-1-yl)-methanone], for which the Ki on HGFR (setting [3]) was found to be 0.058 µM. Consider `Cc1cc(C)cc(COc2cc(-c3ccc(C(=O)N4CCC(N5CCCC5)CC4)cc3)cnc2N)c1`, for which the inhibition at 1 pM on HGFR (Table 7, library procedure 42) was found to be 14%. Take `CC(Oc1cc(-c2ccc(C(=O)N(C)CCN(C)C)cc2)cnc1N)c1c(Cl)ccc(F)c1Cl` [Example L-112]: at HGFR, the inhibition at 0.05 µM was 85%. On to `CCN(CC)CCN1CCN(C(=O)c2ccc(-c3cnc(N)c(OC(C)c4c(Cl)ccc(F)c4Cl)c3)cc2)CC1` [Example L-137], for which the inhibition at 0.05 µM on HGFR came out at 78%. Take `CC1CN(C(=O)c2ccc(-c3cnc(N)c(OCc4nc5ccc(Cl)cc5[nH]4)c3)cc2)CC(C)N1` (stereo not drawn): the inhibition at 1 µM on HGFR was 10%. With `CC(Oc1cc(-c2ccc(C(=O)N3CCC(COCC4CC4)CC3)cc2)cnc1N)c1c(Cl)ccc(F)c1Cl` [Example L-175], the inhibition at 0.05 µM on HGFR was 60%. Take `CC1CN(C(=O)c2ccc(-c3cnc(N)c(OCc4ccc(Cl)cc4Br)c3)cc2)CC(C)N1` (stereo not drawn): the inhibition at 1 µM at HGFR stood at 29%. On to `N#CCCN1CCN(C(=O)c2cnc(N)c(OCc3c(Cl)cccc3Cl)c2)CC1` [Example L-274], for which the inhibition at 1 pM on HGFR (Table 6, library procedure 41) is 19%. For `Nc1ncc(-c2ccc(C(=O)N3CCC(N4CCCC4)CC3)cc2)cc1OCc1ncc(C(F)(F)F)cc1Cl`, the inhibition at 1 pM on HGFR (Table 7, library procedure 42) came out at 8%.

For `CC1CN(C(=O)c2ccc(-c3cnc(N)c(OCc4cc5c(C(F)(F)F)nn(C)c5s4)c3)cc2)CC(C)N1` (stereo not drawn), at HGFR, the inhibition at 1 µM turned out to be 13%.

As to `CC(Oc1cc(-c2ccc(O)nc2)cnc1N)c1c(Cl)ccc(F)c1Cl` (stereo not drawn) [Example I-643, 6′-Amino-5′-[1-(2,6-dichloro-3-fluoro-phenyl)-ethoxy]-1H-[3,3′]-bipyridinyl-6-one], the Ki at HGFR (setting [3]) was found to be 0.0432 µM.
